According to patent publication US20240368092A1, “2,4-Dihydro-3H-1,2,4-Triazol-3-One P2X7 Antagonists” (Breye Therapeutics ApS, priority 2021, published 2024):

Assays:
Assay type in all cases: cell-based
human P2X7 channel = target: T1, human P2X7 channel (Homo sapiens, UniProt Q99572); experiment: human P2X7 channel assay by automated patch-clamp (QPatch 16X); details: HEK-293 cells expressing P2X7; current evoked by 100 microM BzATP; whole-cell, held at -80 mV; read-out: human Q-Patch (activity range)
T1 construct: expressed in transfected cells; host or cells: HEK-293
T1 sequence (Q99572 1-595): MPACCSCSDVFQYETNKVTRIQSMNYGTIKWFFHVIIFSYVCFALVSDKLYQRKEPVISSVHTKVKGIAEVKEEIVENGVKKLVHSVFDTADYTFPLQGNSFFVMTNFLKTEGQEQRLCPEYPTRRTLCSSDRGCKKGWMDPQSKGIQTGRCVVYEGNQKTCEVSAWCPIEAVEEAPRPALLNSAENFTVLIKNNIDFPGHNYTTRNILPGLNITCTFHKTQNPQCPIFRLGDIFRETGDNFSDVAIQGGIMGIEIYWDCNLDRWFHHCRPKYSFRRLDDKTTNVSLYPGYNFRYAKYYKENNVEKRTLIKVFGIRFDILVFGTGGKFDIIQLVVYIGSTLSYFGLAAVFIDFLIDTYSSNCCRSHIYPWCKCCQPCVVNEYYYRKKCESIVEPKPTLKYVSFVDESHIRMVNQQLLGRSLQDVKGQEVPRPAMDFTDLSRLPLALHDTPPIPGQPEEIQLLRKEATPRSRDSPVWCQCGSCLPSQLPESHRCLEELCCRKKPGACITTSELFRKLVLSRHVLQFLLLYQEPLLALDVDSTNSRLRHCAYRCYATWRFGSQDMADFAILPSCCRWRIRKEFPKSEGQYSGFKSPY
Description: In order to directly monitor the block of P2X7 channel, an electrophysiological assay was developed and implemented on the QPatchl6X automated electrophysiology instrument.
HEK-293 cells expressing the P2X7 channels were cultured in modified EMEM.
72 hours before experiment, 5 million cells were seeded onto T225 flasks. Just before the experiment cells were washed twice, detached from the flask with trypsin-EDTA, re-suspended in the suspension solution and placed on the QPatch 16x.
The compounds (20 mM in a 100% DMSO) stored at −20° C. were prepared the day of the experiment (a first dilution 1:20 in 100% DMSO to prepare a 1 mM stock solution, then a 1 microM solution in external solution+a serial dilution 1:10).
The standard whole-cell voltage clamp experiments were performed at room temperature. From these experiments the multihole technology was used and the data were sampled at 2 KHz.
The intracellular solution contained (mM) 135 CsF, 10 NaCl, 1 EGTA, 10 HEPES, (pH 7.2 with CsOH) whereas the extracellular contained (mM) 145 NaCl, 4 KCl, 0.5 MgCl2, 1 CaCl2, 10 HEPES, 10 Glc (pH 7.4 with NaOH).
After establishment of the seal and the passage in the whole cell configuration, the cells were held at −80 mV. The P2XR7 current was evoked by applying 100 microM of BzATP alone (4 times) and then in the presence increasing concentrations of the compound under investigation (1, 10, 100 and 1000 nM).
The pre-incubation periods 5 to 8 contain increasing concentrations of the compound of interest (1, 10, 100 and 1000 nM), as illustrated in FIGURE (application protocol).
The maximal inward current evoked by BzATP in absence or presence of increasing concentrations of the compounds under investigation was measured and normalized. The potential […] effect was measured as % of control and as IC50 determined fitting the dose-response curves data with the following equation:
Here are reported the potency ranges as A, B, C and D, where A is <10 nM; B is 10 nM-100 nM, C is 0.1-1 μM, D is 1-10 μM.

humanP2X7 = target: T2, humanP2X7 (Homo sapiens, UniProt Q99572); experiment: P2X7 channel calcium-influx assay (Fluo-8, FLIPR TETRA), human P2X7; details: HEK-293 cells stably transfected with P2X7; Bz-ATP at EC80; low divalent cation buffer; read-out: humanP2X7 (activity range)
T2 construct: expressed in transfected cells; host or cells: HEK-293
T2 sequence (Q99572 1-595): T1 sequence (Q99572 1-595)
Description: (§1) Extracellular binding of Bz-ATP to P2X7 receptor opens the channel and allows Ca^2+ influx into the cells. This Ca^2+ entry was measured in HEK-293 cells stably transfected with P2X7 receptor using Screen Quest™ Fluo-8 No Wash Calcium Assay Kit (AAt Bioquest®, cat. 36316). Once inside the cell, the lipophilic blocking groups of Fluo-8 are cleaved by non-specific cell esterases, resulting in a negatively-charged fluorescent dye that stays inside cells. Its fluorescence increases upon binding to calcium. When HEK-293/P2X7 cells are stimulated with Bz-ATP, Ca^2+ enters the cells and the fluorescence of Fluo-8 NW increases. The dye has an absorption spectrum compatible with excitation at 488 nm by argon laser sources and its emission wavelength is in the range of 515-575 nm.
(§2) HEK-293 cells stably transfected with P2X7 receptor were seeded overnight in growth medium at 10,000 to 20,000 cells/well in 384-well plate. 24 hours later, the medium was removed, and the cells were pre-loaded at RT for 1 hour with 20 μL/w of Fluo-8 NW. Then 10 μL/w of test compounds and reference antagonist A438079 at 3×-concentration were injected with the FLIPRTETRA and the kinetic response over a period of five minutes was monitored. A second injection of 15 μL/w of 3× reference activator (Bz-ATP at EC80) was performed with the FLIPR TETRA and the signal of the emitted fluorescence was recorded for additional three minutes. All the experiment was carried out in a Low Divalent Cation Assay Buffer (0.3 mM Ca^2+ and 0 mM Mg^2+). The effect of the test compounds was measured as percent inhibition vs the reference antagonist and IC50 values were calculated accordingly. Here are reported the potency ranges as A, B, C and D, where A is <200 nM; B is 200 nM-1 μM, C is 1-10 μM, D is 10-30 μM.

mouseP2X7 = target: T3, mouseP2X7 (Mus musculus, UniProt Q9Z1M0); experiment: P2X7 channel calcium-influx assay (Fluo-8, FLIPR TETRA), mouse P2X7; details: HEK-293 cells stably transfected with P2X7; Bz-ATP at EC80; low divalent cation buffer; read-out: mouseP2X7 (activity range)
T3 construct: expressed in transfected cells; host or cells: HEK-293
T3 sequence (Q9Z1M0 1-595): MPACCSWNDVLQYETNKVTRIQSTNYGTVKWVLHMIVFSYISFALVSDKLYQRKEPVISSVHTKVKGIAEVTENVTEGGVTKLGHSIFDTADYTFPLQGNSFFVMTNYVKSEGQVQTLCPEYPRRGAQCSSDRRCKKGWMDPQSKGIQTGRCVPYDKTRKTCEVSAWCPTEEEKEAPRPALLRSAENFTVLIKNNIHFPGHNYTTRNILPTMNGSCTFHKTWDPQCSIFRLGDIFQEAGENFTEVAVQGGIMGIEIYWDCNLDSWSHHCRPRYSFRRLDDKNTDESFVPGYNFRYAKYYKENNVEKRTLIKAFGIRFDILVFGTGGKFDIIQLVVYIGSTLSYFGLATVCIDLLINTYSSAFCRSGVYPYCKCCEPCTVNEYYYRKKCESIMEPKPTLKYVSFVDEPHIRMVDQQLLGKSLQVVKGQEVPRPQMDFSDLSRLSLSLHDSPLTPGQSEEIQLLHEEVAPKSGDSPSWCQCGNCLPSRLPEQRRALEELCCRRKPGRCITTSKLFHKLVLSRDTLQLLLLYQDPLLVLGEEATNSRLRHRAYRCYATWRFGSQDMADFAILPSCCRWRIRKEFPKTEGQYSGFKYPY
Description: as §1, §2

ratP2X7 = target: T4, ratP2X7 (Rattus norvegicus, UniProt Q64663); experiment: P2X7 channel calcium-influx assay (Fluo-8, FLIPR TETRA), rat P2X7; details: HEK-293 cells stably transfected with P2X7; Bz-ATP at EC80; low divalent cation buffer; read-out: ratP2X7 (activity range)
T4 construct: expressed in transfected cells; host or cells: HEK-293
T4 sequence (Q64663 1-595): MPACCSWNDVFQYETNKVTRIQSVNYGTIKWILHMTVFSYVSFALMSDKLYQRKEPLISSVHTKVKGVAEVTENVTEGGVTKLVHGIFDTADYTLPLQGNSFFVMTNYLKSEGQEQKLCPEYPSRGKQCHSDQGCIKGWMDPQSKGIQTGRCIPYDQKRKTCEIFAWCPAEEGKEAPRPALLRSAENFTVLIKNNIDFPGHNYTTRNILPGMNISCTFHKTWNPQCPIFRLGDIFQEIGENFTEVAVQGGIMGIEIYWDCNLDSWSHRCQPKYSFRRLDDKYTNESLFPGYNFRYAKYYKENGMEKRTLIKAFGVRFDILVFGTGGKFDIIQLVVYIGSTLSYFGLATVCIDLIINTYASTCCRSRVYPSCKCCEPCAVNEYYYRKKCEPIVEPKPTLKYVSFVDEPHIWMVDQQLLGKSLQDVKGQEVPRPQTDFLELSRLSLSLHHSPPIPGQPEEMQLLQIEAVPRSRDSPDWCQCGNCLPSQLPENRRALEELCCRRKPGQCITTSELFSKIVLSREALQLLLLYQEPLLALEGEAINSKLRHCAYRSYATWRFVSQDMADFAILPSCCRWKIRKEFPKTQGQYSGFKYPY
Description: as §1, §2

| Structure (SMILES) | IC50 (human P2X7 channel) [nM] | IC50 (humanP2X7) [nM] | IC50 (mouseP2X7) [nM] | IC50 (ratP2X7) [nM] |
| --- | --- | --- | --- | --- |
| Cn1nc(Cc2c(F)cccc2Cl)n(CC2CC3C(C2)C3(F)F)c1=O (stereo not drawn) [Example 5, 5-(2-chloro-6-fluorobenzyl)-4-((6,6-difluorobicyclo[3.1.0]hexan-3-yl)methyl)-2-methyl-2,4-dihydro-3H-1,2,4-triazol-3-one] | 10 to 100 | 200 to 1000 | 1000 to 10000 | < 200 |
| Cn1nc(Cc2ccc(F)cc2Cl)n(CC2CCCCCC2)c1=O [Example 11, 5-(2-chloro-4-fluorobenzyl)-4-(cycloheptylmethyl)-2-methyl-2,4-dihydro-3H-1,2,4-triazol-3-one] | 10 to 100 | < 200 | 200 to 1000 | < 200 |
| Cn1nc(Cc2c(F)cccc2Cl)n(CC2CCCCCC2)c1=O [Example 12, 5-(2-chloro-6-fluorobenzyl)-4-(cycloheptylmethyl)-2-methyl-2,4-dihydro-3H-1,2,4-triazol-3-one] | < 10 | < 200 | < 200 | < 200 |
| Cn1nc(CC2CCCCC2)n(Cc2ccnc(C(F)(F)F)c2)c1=O [Example 13, 5-(cyclohexylmethyl)-2-methyl-4-((2-(trifluoromethyl)pyridin-4-yl)methyl)-2,4-dihydro-3H-1,2,4-triazol-3-one] | 1000 to 10000 | 10000 to 30000 | 10000 to 30000 | 10000 to 30000 |
| Cn1nc(Cc2c(F)cccc2Cl)n(CC2CCC3(CC2)CC3)c1=O [Example 14, 5-(2-chloro-6-fluorobenzyl)-2-methyl-4-(spiro[2.5]octan-6-ylmethyl)-2,4-dihydro-3H-1,2,4-triazol-3-one] | < 10 | < 200 | < 200 | < 200 |
| Cn1nc(Cc2c(F)cccc2Cl)n(CCC2CCC(F)(F)CC2)c1=O [Example 15, 5-(2-chloro-6-fluorobenzyl)-4-(2-(4,4-difluorocyclohexyl)ethyl)-2-methyl-2,4-dihydro-3H-1,2,4-triazol-3-one] | 10 to 100 | < 200 | 1000 to 10000 | < 200 |
| Cn1nc(Cc2c(F)cccc2Cl)n(CCC2CCC(C)(C)CC2)c1=O [Example 16, 5-(2-chloro-6-fluorobenzyl)-4-(2-(4,4-dimethylcyclohexyl)ethyl)-2-methyl-2,4-dihydro-3H-1,2,4-triazol-3-one] | 10 to 100 | 200 to 1000 | 1000 to 10000 | 200 to 1000 |
| Cn1nc(Cc2ccccc2C(F)(F)F)n(CC2CCCCC2)c1=O [Example 17, 4-(cyclohexylmethyl)-2-methyl-5-(2-(trifluoromethyl)benzyl)-2,4-dihydro-3H-1,2,4-triazol-3-one] | 100 to 1000 | 200 to 1000 | 1000 to 10000 | < 200 |
| Cn1nc(Cc2ccccc2C(F)(F)F)n(CC2CCC(F)(F)CC2)c1=O [Example 18, 4-((4,4-difluorocyclohexyl)methyl)-2-methyl-5-(2-(trifluoromethyl)benzyl)-2,4-dihydro-3H-1,2,4-triazol-3-one] | 10 to 100 | < 200 | 1000 to 10000 | < 200 |
| Cn1nc(Cc2ccccc2C(F)(F)F)n(CC2CCC(F)(F)C2)c1=O (stereo not drawn) [Example 19, 4-((3,3-difluorocyclopentyl)methyl)-2-methyl-5-(2-(trifluoromethyl)benzyl)-2,4-dihydro-3H-1,2,4-triazol-3-one] | 100 to 1000 | 1000 to 10000 | 10000 to 30000 | 200 to 1000 |
| Cn1nc(Cc2c(F)cccc2Cl)n(CC2CCCO2)c1=O (stereo not drawn) [Example 20, 5-(2-chloro-6-fluorobenzyl)-2-methyl-4-((tetrahydrofuran-2-yl)methyl)-2,4-dihydro-3H-1,2,4-triazol-3-one] | 1000 to 10000 | 10000 to 30000 | 10000 to 30000 | 10000 to 30000 |
| CN1CCCCC1Cn1c(Cc2c(F)cccc2Cl)nn(C)c1=O (stereo not drawn) [Example 21, 5-(2-chloro-6-fluorobenzyl)-2-methyl-4-((1-methylpiperidin-2-yl)methyl)-2,4-dihydro-3H-1,2,4-triazol-3-one] | 1000 to 10000 | 1000 to 10000 | 10000 to 30000 | 1000 to 10000 |
